Data published in publication PMC11748689, “Pharmacological and structural understanding of the Trypanosoma cruzi proteasome provides key insights for developing site-specific inhibitors” (The Journal of Biological Chemistry, 2024).

Legend:
Assay type in all cases: biochemical
[1] = target: recombinant β4^R mutant T. cruzi proteasome (chymotrypsin-like activity) (Trypanosoma cruzi, UniProt V5BU39+V5C017, F24L/I29M); test: biochemical
Protocol: (§1) Point mutations were created in individual subunits using overlapping PCR from the original templates using Polh and Tn7L primers outside the genes and suitable internal primers to introduce selected mutations. For Δβ1Δβ2, β1 Thr 55, and β2 Thr 67 were both mutated to Ala, the β4^R mutant was produced by mutating Phe 24 and Ile 29 to Leu and Met respectively in β4 subunit.
(§2) Chymotrypsin-, trypsin-, and caspase-like activity assays were performed using a commercially available Proteasome-Glo 3-substrate system assay kit (catalog number G8532) (Promega Corporation) according to the manufacturers protocols and as previously described ([24]).
(§3) Prior to running assays, Proteasome-Glo buffer was used to reconstitute the luciferin detection reagent (containing a recombinant thermostable luciferase enzyme). The resuspended luciferin detection reagent was then mixed with Proteasome-Glo chymotrypsin-, trypsin- or caspase-like substrates (either 40 μM suc-Leu-Leu-Val-Tyr-aminoluciferin, 30 μM Z-Leu-Arg-Arg-aminoluciferin (Z is benzyloxycarbonyl) or 40 μM Z-Nle-Pro-Nle-Asp-aminoluciferin respectively (these concentrations represent 2x final assay concentrations)). These substrate mixtures were allowed to incubate at room temperature for 60 min prior to use to allow the removal of any contaminating free aminoluciferin.
(§4) Proteasome assays were carried out using 384-well, white, low-volume plates (catalog number 784904) (Greiner Bio-One) at room temperature (∼23 °C) in 8 μl reaction volumes. When activity checks were to be run in the presence or absence of a fixed concentration of proteasome inhibitor, 80 nL of the inhibitor (at a concentration 100x the required final assay concentration), or 80 nL dimethylsulfoxide (DMSO), were dispensed into assay plates using an Echo 550 acoustic dispenser (Labcyte).
(§5) A 1 in 2 dilution series of the various T. cruzi proteasome samples (native, recombinant WT, β4^R mutant, and Δβ1Δβ2 mutant) were produced in assay buffer (50 mM Tris–HCl, pH 7.5, 10 mM sucrose, 5 mM MgCl2, 1 mM DTT, 2 mM ATP, 150 mM NaCl, 1 mM EDTA, and 0.05 mg/ml bovine serum albumin). Subsequently, 4 μl of the various concentrations of diluted proteasome were added to assay plates using an electronic multichannel pipette (Integra Biosciences Ltd). When kinetic read activity checks were performed (Fig. 2), proteasome final assay concentrations used were 115 μg/ml, 115 μg/ml, and 230 μg/ml native proteasome (in the chymotrypsin, trypsin, and caspase assays, respectively), and 4.1 μg/ml, 3.4 μg/ml, or 1.4 μg/ml recombinant WT proteasome (in the chymotrypsin, trypsin, and caspase assays, respectively). When activity checks were to be run in the presence or absence of a proteasome inhibitor plates containing inhibitor or DMSO control were incubated with the relevant proteasome sample for 60 min at room temperature (this step was not included in activity check experiments where compounds were not used).
(§6) Following the 60 min incubation of proteasome and compound (if required), assays were initiated with the addition of 4 μl of substrate mix (containing substrate and the luciferin detection reagent) using an electronic multichannel pipette. Final assay concentrations of substrates used were either 20 μM Suc-Leu-Leu-Val-Tyr-aminoluciferin, 15 μM Z-Leu-Arg-Arg-aminoluciferin, or 20 μM Z-Nle-Pro-Nle-Asp-aminoluciferin for chymotrypsin-, trypsin- or caspase-like activity respectively.
(§7) Luminescence was read either kinetically or as an endpoint read using an EnVision 2102 Multilabel Reader (PerkinElmer, Inc) with 0.2 s per well reading time. When kinetic assays were run, luminescence was read every 5 min for 90 min. Endpoint assays were run for 60 min before luminescence was read. All data processing and linear fit analyses were performed using Microsoft Excel for Microsoft 365 software (Redmond, Washington; https://www.microsoft.com/).

[2] = target: recombinant Δβ1Δβ2 mutant T. cruzi proteasome (chymotrypsin-like activity) (Trypanosoma cruzi, UniProt V5BU39+V5C017); test: biochemical
Protocol: as §1, §2, §3, §4, §5, §6, §7

[3] = target: recombinant β4^R mutant T. cruzi proteasome (caspase-like activity) (Trypanosoma cruzi, UniProt V5BHX1); test: Caspase-like activity assay (Proteasome-Glo), recombinant β4^R mutant T. cruzi proteasome
Protocol: as §1, §2, §3, §4, §5, §6, §7

[4] = target: recombinant WT T. cruzi proteasome (trypsin-like activity, β2) (Trypanosoma cruzi, UniProt V5BCU3); test: biochemical; conditions: for IC50: mean ± SD, N = 3, read-out: pIC50, Trypsin Assay, Wild-type (converted)
Protocol: as §2, §3
(§8) When proteasome inhibitors were to be screened in the chymotrypsin, trypsin, and caspase assays, test compounds were dispensed into assay wells using an ECHO 550 acoustic dispenser (Labcyte) (final DMSO concentration 1%). Compounds were tested in either a 10-point concentration series (30 μM top final assay concentration, 1 in 3 dilution series) or a 12-point concentration series (30 μM top final assay concentration, 1 in 2.5 dilution series).
(§9) Proteasome assays were then performed as described above using Promega Proteasome-Glo 3-substrate system assay kit. […] Diluted proteasome (4 μl) was added to assay plates using an electronic multichannel pipette (Integra Biosciences Ltd) and the proteasome incubated with compound for 60 min at room temperature.
(§10) Following the 60 min incubation of proteasome and compounds, assays were initiated with the addition of 4 μl of a substrate mix (containing substrate and the luciferin detection reagent) using an electronic multichannel pipette. Final assay concentrations of substrates used were either 20 μM Suc-Leu-Leu-Val-Tyr-aminoluciferin, 15 μM Z-Leu-Arg-Arg-aminoluciferin, or 20 μM Z-Nle-Pro-Nle-Asp-aminoluciferin for chymotrypsin-, trypsin-, or caspase-like activity, respectively. Following a further 60 min assay incubation, luminescence was read using an EnVision 2102 Multilabel Reader (PerkinElmer, Inc) with 0.2 s per well reading time.
(§11) All data processing was performed using Microsoft Excel for Microsoft 365 software.
(§12) Nonlinear dose-response curve fitting was carried out using the Microsoft Excel add-in, XLfit (IDBS). Percentage inhibition data were either fitted to a standard 4-parameter logistic fit model (XLfit model 205; Equation 2) or a biphasic model (either XLfit model 300; Equation 3 or a custom biphasic model; Equation 4 (used in cases where the top and/or bottom parameters deviated from 100%/0% inhibition)).(2) y=A+(B−A)/1+(C/x)^D Where A = % inhibition at bottom, B = % inhibition at top, C = IC50, D = slope, x = inhibitor concentration and y = % inhibition.(3) y=(A/(1+10^(C−log(x))∗B))+((100−A)/(1+10^(D−log(x))∗B)) With A = % inhibition at midplateau, B = slope, C = log(IC50^A), D = log(IC50^B)).
(§13) All IC50 data generated were converted to pIC50 using Equation 5.

[5] = target: native T. cruzi proteasome (trypsin-like activity, β2) (Trypanosoma cruzi, UniProt V5BCU3); test: Trypsin-like activity assay (Proteasome-Glo), native T. cruzi proteasome; conditions: mean ± SD, N = 3; read-out: pIC50, Trypsin Assay, Native (converted)
Protocol: as §2, §3, §8, §9, §10, §11, §12, §13

[6] = target: recombinant WT T. cruzi proteasome (caspase-like activity, β1) (Trypanosoma cruzi, UniProt V5BHX1); test: Caspase-like activity assay (Proteasome-Glo), recombinant wild-type T. cruzi proteasome
Protocol: as §2, §3, §8, §9, §10, §11, §12, §13

[7] = native and recombinant T. cruzi proteasomes

| Compound | IC50 [1] [nM] | IC50 [2] [nM] | extent of inhibition in chymotrypsin dose-response curve, Δβ1Δβ2 mutant ([2]; top of dose-response curve) | IC50 [3] [µM] | IC50 [4] [µM] | inhibition of the trypsin activity [4, 7] | IC50 [5] [µM] | IC50 [6] [µM] | inhibition of the caspase activity [6, 7] | inhibition of chymotrypsin activity, β4^R mutant, fixed concentration ([1]; 1 μM compound (Fig. 7C)) | inhibition of chymotrypsin activity, Δβ1Δβ2 mutant, fixed concentration ([2]; 1 μM compound (Fig. 7B)) | inhibition of caspase activity, β4^R mutant, fixed concentration ([3]; 1 μM compound (Fig. S4)) |
| --- | --- | --- | --- | --- | --- | --- | --- | --- | --- | --- | --- | --- |
| O=C(Nc1ccc(F)c(C(=O)NC2CC2)c1)c1ccc(COc2ccccc2)o1 [DDD02091966, N-(3-(cyclopropylcarbamoyl)-4-fluorophenyl)-5-(phenoxymethyl)furan-2-carboxamide] | > 30200 | 45.7 | unable to fully inhibit | > 30.2 | > 30.2 | no inhibition | > 30.2 | > 30.2 | no inhibition | – | – | – |
| O=C(Nc1ccc(F)c(-c2cn3nc(-c4ccccc4)cnc3n2)c1)N1CCCC1 [DDD01012248] | 2000 | 41.7 | – | > 30.2 | > 30.2 | – | > 30.2 | > 30.2 | – | no notable inhibition | full inhibition | did not inhibit |
